Test results reported in patent US10800789B2, “Antiviral compounds” (Gilead Pharmasset LLC, priority 2012, dated 2020).
Read-outs that look alike come from different tables or passages of the source.

Assays:
[1] = tested on: NS5A chimeric genotype 1b Con1 replicon with genotype 4a ED43 strain NS5A gene; assay: Replicon assay, genotype 4a NS5A chimera; format: cell-based, HCV; settings: Hepatitis C virus
[2] = tested on: NS5A chimeric genotype 2a JFH-1 replicon with genotype 2a J6 strain NS5A gene (M31 present); assay: Replicon assay, genotype 2a J6 NS5A chimera; format: cell-based, HCV; settings: Hepatitis C virus
Procedure, shortened: (§1)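 Cells carrying the stable or transiently transfected (Huh-Lunet) dicistronic RLuc replicons received 3-fold serial compound dilutions from 10 mM DMSO stocks. After 72 h, cells were lysed and Renilla luciferase read. DMSO served as the no-inhibition control and ITMN-191 above 100×EC50 as the positive control; EC50 by non-linear regression.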

[3] = tested on: NS5A chimeric genotype 2a JFH-1 replicon with genotype 2b MD2b-1 strain NS5A gene (M31 present); assay: Replicon assay, genotype 2b NS5A chimera; format: cell-based, HCV; settings: Hepatitis C virus
Procedure, shortened: as §1

[4] = tested on: stable HCV 1a RLuc replicon cells (dicistronic genotype 1a H77 replicon); assay: Renilla luciferase HCV replicon reporter assay, genotype 1a; format: cell-based; settings: Hepatitis C virus, 72 h, stable 1a H77 RLuc replicon cells
Procedure, shortened: (§2)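 Antiviral EC50 was determined in HCV replicon cells (stable RLuc lines for 1a H77, 1b Con1, 2a JFH-1 with NS5A L31; J6 NS5A chimera with M31) treated 72 h with compound. Renilla luciferase was then quantified.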

[5] = tested on: stable HCV 1b RLuc replicon cells (dicistronic genotype 1b Con1 replicon); assay: Renilla luciferase HCV replicon reporter assay, genotype 1b; format: cell-based; settings: Hepatitis C virus, 72 h, stable 1b Con1 RLuc replicon cells, 72 hours; read-out: 1b
Procedure, shortened: as §2

[6] = tested on: NS5A chimeric genotype 1b Con1 replicon with genotype 3a S52 strain NS5A gene; assay: Replicon assay, genotype 3a NS5A chimera; format: cell-based, HCV; settings: Hepatitis C virus
[7] = tested on: stable HCV 2a JFH-1 Rluc replicon cells (L31 present in NS5A); assay: Renilla luciferase HCV replicon reporter assay, genotype 2a JFH-1; format: cell-based; settings: Hepatitis C virus
Procedure, shortened: as §2

[8] = read-out: 4a (s) (nM), genotype 4a NS5A chimeric replicon, stable replicon cells (s)
[9] = read-out: 4a (s), (s), activity range
[10] = read-out: 2a J6 (t) (nM), genotype 2a J6 NS5A chimeric replicon (M31), transiently transfected (t) into Huh-Lunet cells
[11] = read-out: 2a J6 (t), transiently transfected (t) into Huh-Lunet cells, activity range
[12] = 2BS, read-out: 2b (s), stably replicating replicon cells (s), activity range
[13] = read-out: 2b (s) (nM), genotype 2b MD2b-1 NS5A chimeric replicon (M31), stably replicating replicon cells (s)
[14] = read-out: 3a (s) (nM), genotype 3a NS5A chimeric replicon, stable replicon cells (s)
[15] = read-out: 3a (s), (s), activity range
[16] = read-out: 2a JFH (nM), genotype 2a JFH-1 replicon (L31 in NS5A), stable cells
[17] = read-out: 2a JFH, stable 2a JFH-1 Rluc replicon cells, L31 in NS5A, activity range

SMILES	EC50 [1, 8] [nM]	EC50 [1, 9] [nM]	EC50 [2, 10] [nM]	EC50 [2, 11] [nM]	EC50 [3, 12] [nM]	EC50 [3, 13] [nM]	EC50 [4] [nM]	EC50 ([4]; activity range) [nM]	EC50 [5] [nM]	EC50 [6, 14] [nM]	EC50 [6, 15] [nM]	EC50 [7, 16] [nM]	EC50 [7, 17] [nM]	EC50 ([2]; read-out: 2a J6 (s) (nM), genotype 2a J6 NS5A chimeric replicon (M31), stably replicating replicon cells (s)) [nM]	EC50 ([2]; read-out: 2a J6 (s), stably replicating replicon cells (s), activity range) [nM]
CC[C@H]1CC[C@@H](c2ncc(-c3ccc4c(c3)COc3cc5c(ccc6nc([C@@H]7C[C@H](C)CN7C(=O)[C@@H](NC(=O)OC)C(C)C)[nH]c65)cc3-4)[nH]2)N1C(=O)[C@@H](NC(=O)OC)C1CCOCC1 [IC]	0.012	< 0.1	0.052	< 0.1	0.1 to 0.999	0.122	0.024	< 0.1	0.027	0.116	0.1 to 0.999	0.02	< 0.1	–	–
COC(=O)N[C@H](C(=O)N1[C@@H](C)CC[C@H]1c1ncc(-c2ccc3c(c2)COc2cc4c(ccc5nc([C@@H]6CC[C@H](C(C)C)N6C(=O)[C@@H](NC(=O)OC)C6CCOCC6)[nH]c54)cc2-3)[nH]1)C(C)C [ID]	0.026	< 0.1	0.953	0.1 to 0.999	1 to 44	1.81	0.035	< 0.1	0.038	0.801	0.1 to 0.999	0.051	< 0.1	–	–
CC[C@H]1CC[C@@H](c2nc3ccc4cc5c(cc4c3[nH]2)OCc2cc(-c3cnc([C@@H]4CC[C@H](C)N4C(=O)[C@@H](NC(=O)OC)C(C)C)[nH]3)ccc2-5)N1C(=O)[C@@H](NC(=O)OC)C(C)C [IF]	0.017	< 0.1	0.84	0.1 to 0.999	0.1 to 0.999	0.691	0.016	< 0.1	0.021	0.35	0.1 to 0.999	0.026	< 0.1	–	–
CC[C@H]1CC[C@@H](c2nc3ccc4cc5c(cc4c3[nH]2)OCc2cc(-c3cnc([C@@H]4CC[C@H](C)N4C(=O)[C@@H](NC(=O)OC)C(C)C)[nH]3)ccc2-5)N1C(=O)[C@H](NC(=O)OC)c1ccccc1 [IH]	0.016	< 0.1	0.514	0.1 to 0.999	0.1 to 0.999	0.194	0.02	< 0.1	0.021	0.052	< 0.1	0.024	< 0.1	–	–
CC[C@H]1CC[C@@H](c2nc3ccc4cc5c(cc4c3[nH]2)OCc2cc(-c3cnc([C@@H]4CC[C@H](CC)N4C(=O)[C@@H](NC(=O)OC)C4CCOCC4)[nH]3)ccc2-5)N1C(=O)[C@@H](NC(=O)OC)C(C)C [II]	0.016	< 0.1	0.209	0.1 to 0.999	0.1 to 0.999	0.197	0.024	< 0.1	0.033	0.701	0.1 to 0.999	0.029	< 0.1	–	–
CC[C@H]1CC[C@@H](c2ncc(-c3ccc4c(c3)COc3cc5c(ccc6nc([C@@H]7C[C@@H]8CCC[C@@H]8N7C(=O)[C@@H](NC(=O)OC)C(C)C)[nH]c65)cc3-4)[nH]2)N1C(=O)[C@@H](NC(=O)OC)C1CCOCC1 [IN]	0.023	< 0.1	0.044	< 0.1	0.1 to 0.999	0.109	0.021	< 0.1	0.028	0.212	0.1 to 0.999	0.03	< 0.1	–	–
CC[C@H](C)[C@H](NC(=O)OC)C(=O)N1[C@H](c2nc3ccc4cc5c(cc4c3[nH]2)OCc2cc(-c3cnc([C@@H]4CC[C@H](C)N4C(=O)[C@@H](NC(=O)OC)C4CCOCC4)[nH]3)ccc2-5)C[C@@H]2CCC[C@@H]21 [IO]	0.03	< 0.1	0.07	< 0.1	0.1 to 0.999	0.118	0.027	< 0.1	0.043	0.293	0.1 to 0.999	0.033	< 0.1	–	–
CC[C@H]1CC[C@@H](c2ncc(-c3ccc4c(c3)COc3cc5c(ccc6nc([C@@H]7C[C@@H]8CCC[C@@H]8N7C(=O)[C@@H](NC(=O)OC)C7CCOCC7)[nH]c65)cc3-4)[nH]2)N1C(=O)[C@@H](NC(=O)OC)C(C)C [IQ]	0.021	< 0.1	0.046	< 0.1	< 0.1	0.069	0.018	< 0.1	0.019	0.045	< 0.1	0.023	< 0.1	–	–
CC[C@H]1CC[C@@H](c2nc3ccc4cc5c(cc4c3[nH]2)OCc2cc(-c3cnc([C@@H]4CC[C@H](C)N4C(=O)[C@@H](NC(=O)OC)C4CCOCC4)[nH]3)ccc2-5)N1C(=O)[C@@H](NC(=O)OC)C(C)C [IR]	0.017	< 0.1	0.084	< 0.1	< 0.1	0.081	0.018	< 0.1	0.021	0.091	< 0.1	0.018	< 0.1	–	–
CC[C@H]1CC[C@@H](c2nc3ccc4cc5c(cc4c3[nH]2)OCc2cc(-c3cnc([C@@H]4C[C@H](C)CN4C(=O)[C@@H](NC(=O)OC)C(C)C)[nH]3)ccc2-5)N1C(=O)[C@@H](NC(=O)OC)C1CCOCC1 [IS]	0.015	< 0.1	0.052	< 0.1	< 0.1	0.083	0.017	< 0.1	0.021	0.174	0.1 to 0.999	0.018	< 0.1	–	–
CCC[C@H]1CC[C@@H](c2nc3ccc4cc5c(cc4c3[nH]2)OCc2cc(-c3cnc([C@@H]4CC[C@H](C)N4C(=O)[C@@H](NC(=O)OC)C(C)C)[nH]3)ccc2-5)N1C(=O)[C@@H](NC(=O)OC)C1CCOCC1 [IV]	0.018	< 0.1	–	–	0.1 to 0.999	0.426	0.045	< 0.1	0.053	0.236	0.1 to 0.999	0.055	< 0.1	0.068	< 0.1
COC(=O)N[C@H](C(=O)N1[C@H](c2ncc(-c3ccc4c(c3)COc3cc5c(ccc6nc([C@@H]7CC[C@H](C)N7C(=O)[C@@H](NC(=O)OC)C7CCOCC7)[nH]c65)cc3-4)[nH]2)C[C@@H]2CCC[C@@H]21)C(C)C [IY]	0.019	< 0.1	0.047	< 0.1	< 0.1	0.069	0.023	< 0.1	0.03	0.045	< 0.1	0.012	< 0.1	–	–
